Measurements published in patent publication US20080161278A1, “2-Azetidinyl-4-(1H-Pyrazol-3-Ylamino) Pyrimidines as Inhibitors of Insulin-Like Growth Factor-1 Receptor Activity” (ASTRAZENECA AB, priority 2005, published 2008).

Tested on: murine fibroblasts (NIH3T3) over-expressing human IGF-1 receptor
Test: Test (c): inhibition of IGF-stimulated cell proliferation (BrdU incorporation)
Assay type: cell-based
Settings: Mus musculus
Procedure: c) Inhibition of IGF-Stimulated Cell Proliferation
The construction of murine fibroblasts (NIH3T3) over-expressing human IGF-1 receptor has been described by Lammers et al (EMBO J, 8, 1369-1375, 1989). These cells show a proliferative response to IGF-I which can be measured by BrdU incorporation into newly synthesised DNA. Compound potency was determined as causing inhibition of the IGF-stimulated proliferation in the following assay:
Compounds are initially dissolved in DMSO to 10 mM, followed by dilutions in DMEM+1% FCS+glutamine to give a range from […] in 1-0.00045% DMSO final concentration in assay well.
Exponentially growing NIH3T3/IGFR cells were harvested and seeded in complete growth medium into a flat-bottomed 96 well tissue culture grade plate (Costar 3525) at 1.2×10^4 cells per well in a volume of 100 μl.
Growth medium was carefully removed from each well using a multi-channel pipette. Wells were carefully rinsed three times with 200 μl with HBSS. 100 μl of starvation medium was added to each well and the plate was re-incubated for 24 hours.
50 μl of a 4× concentrate of test compound was added to appropriate wells. Cells were incubated for 30 minutes with compound alone before the addition of IGF. […]
The incorporation of BrdU in the cells (after a 4 h incorporation period) was assessed using the BrdU Cell Proliferation Elisa according to the manufacturer's protocol.

Row | SMILES | IC50
1 | Cc1cc(Nc2cc(C)[nH]n2)nc(N2CCC2c2cc(-c3ccccn3)no2)n1 (centres unmarked) [Example 4, 6-Methyl-2-{2-[3-(pyrid-2-yl)isoxazol-5-yl]azetidin-1-yl}-4-(5-methyl-1H-pyrazol-3-ylamino)pyrimidine] | 0.06 µM
2 | Cc1cc(Nc2cc(N3CCOCC3)nc(N3CCC3c3cc(-c4ccccn4)no3)n2)n[nH]1 (centres unmarked) [Example 2, 6-Morpholino-2-{2-[3-(pyrid-2-yl)isoxazol-5-yl]azetidin-1-yl}-4-(5-methyl-1H-pyrazol-3-ylamino)pyrimidine] | 0.04 µM
